Results reported in US20100092459A1, “Protein Complex and Uses” (IMPERIAL INNOVATIONS LIMITED, priority 2006, published 2010).

Columns and labels:
[1] = system: FGF-2-mediated ERK phosphorylation in H510 cells; test: FGF-2-induced ERK phosphorylation in H510 cells, Western blot for biphospho-ERK; format: cell-based; conditions: for inhibition of FGF-2-mediated ERK phosphorylation: dose range of inhibitor 1 h, then FGF-2 0.1 ng/ml 5 min
Procedure: (B) Representative blots from (A) were quantified by optical densitometry normalised for actin. (C) H69 cells transfected with empty (V) or a wt-PKCε-GFP expressing vector (a) were analysed for phospho-ERK, XIAP and Bcl-XL levels. (D) Baseline level cell death in V-H69 and ε-H69 cells growing in 10% FCS was determined by flow cytometry using Annexin V staining. (E) ε-H69 and V-H69 cells in SFM were treated with or without 0.1 μM etoposide (VP-16) and cell numbers determined 96 h later. Conditions were performed in quadruplicates and the average cell number±SEM represented as fold over untreated. (F) H510 cells in SFM were treated with or without 40 μM ε-TITAT, ΕTI-TITAT or TITAT for 4 h prior to stimulation for 5 min with or without FGF-2 (0.1 ng/ml). Cell lysates were Western-blotted for biphospho-ERK. […] (G) H510 cells transfected with PKCε or scrambled (sc) siRNA were stimulated with or without FGF-2. Lysates were analysed for PKCε levels and Erk phosphorylation. (A, C, F and G) Lamin B and actin immunodetection were used as loading controls.
(A) H510 cells were treated with or without a dose range of GF109203X (GF), Gö6976 (Go), Hispidin (His), BAPTA (BA) or Rottlerin (Rot) for 1 h prior to stimulation for 5 min in the presence or absence of either FGF-2 (0.1 ng/ml) or PDBu (400 nM). Cell lysates were analysed by SDS-PAGE/Western-blotting for biphospho-ERK. Lamin immunodetection was used as loading control. (B-top panel) Equal protein amounts from SCLC cell lines were compared for their PKC expression pattern. (B-bottom panel) SCLC cells in SFM were stimulated with and without FGF-2 for 5 min and cell lysates analysed by SDS-PAGE/WB for Erk phosphorylation. PKCε and PKCα levels (ODs from left panel) were compared to the ability to phosphorylate Erk in these SCLC cell lines. Results shown are representative of at least three independent experiments.
The PKCε translocation inhibitor ([…]) and PKCα translocation inhibitor ([…]) (Souroujon and Mochly-Rosen, 1998; Yedovitzky et al., 1997) were made cell-permeable by linkage to the HIV-derived TITAT sequence ([…]). H510 cells in RPMI were incubated for 4 h with 40 μM of either translocation inhibitor peptides or TITAT prior to further treatments. The activity of these inhibitors on ERK phosphorylation was assessed by Western Blotting.

[2] = system: Bcl-XL and XIAP; test: Bcl-XL and XIAP expression in HEK293Tet cells, Western blot; format: cell-based
Procedure: (§1) HEK 293-Tet clones transfected with an inducible vector for kinase active S6K1 (1KA), S6K2 (2KA) or empty vector were treated with tetracycline for 6 h prior to (A) Western-blotting (WB) as indicated or (B) S6K1 or 2 kinase assay using an S6 peptide as substrate. (C) V-, 1KA- and 2KA-293 cells were incubated in the absence of tetracycline with (white bars) or without (hatched bars) serum for 18 h or with tetracycline in the absence of serum (black bars) and the proportion of apoptotic cells determined using annexin V staining. (D) Cell lysates from 2KA and 1KA-293 cells treated with or without tetracycline, FGF-2 and PD098059 were analysed for Bcl-XL expression and S6 phosphorylation. (E) HEK 293 cells incubated with or without FGF-2 (4h) prior to serum deprivation (18 h) were analysed by annexin V staining. (A, D, F) Actin and lamin B immunodetections were used as a loading control. (B, C, E) Results represent the average of triplicates±SEM. (A-E) Results are representative of at least three independent experiments.
(A and B) HEK293 expressing tetracycline-inducible kinase-active S6K1 (1KA) or 2 (2KA) were treated with or without tetracycline for 6 h (B) or the time indicated (A). (A) Cells were grown in the absence of FCS and a cell death time-course performed. Cell death was assessed microscopically by determining Trypan blue positivity. Results shown are averages±SEM of triplicates. (C) HEK293 cells were treated for 1 h with or without 25 μM PD098059 prior to stimulation with FGF-2 for 4 h. (B and C) Cell lysates were analysed by SDS-PAGE/WB for the levels of Bcl-XL and XIAP. Actin was used as a loading control. Results shown are representative of at least three independent experiments.

[3] = system: HEK293Tet cells; test: Survival of HEK293Tet cells after serum deprivation (annexin V); format: cell-based; conditions: FGF-2 4 h before serum deprivation 18 h
Procedure: as §1
SCLC cells (5×10^4 cells/ml SFM) were pre-treated with or without 0.1 ng/ml FGF-2 for 4 h prior to treatment with 0.1 μM etoposide and incubated at 37° C. for 96 h. […] The proportion of cell death was either determined by trypan blue exclusion or by Annexin V staining and flow cytometry as previously described (Pardo et al., 2002).

[4] = system: S6K2; test: S6K2 immune complex kinase assay, FGF-2-stimulated H510 cells; format: cell-based; conditions: peptide 4 h
Procedure: (§2) Cell lysates were subjected to immunoprecipitation with a PKCε antibody prior to Western blotting (WB) for the molecules indicated. (A-lower panel) Total cell lysate was Western-blotted as indicated. (B and E) […] was immunoprecipitated from V-H69 and ε-H69 (B) or […] cells (E) following 4 h treatment with or without ε[…] and TITAT. Immunoprecipitates were subjected to in-vitro kinase assays with S6-peptide as a substrate and the results shown are average cpm±SEM from triplicates of a representative experiment. (C) The phosphorylation of the endogenous V-H69 and -H69 cells in SFM were washed three times in RPMI 1640, and 2×10^6 cell aliquots were incubated in this medium for 30 min at 37° C. Cells were treated in the presence or absence of 40 μM ([…] or TITAT peptide for 4 h as indicated, prior to performing an immune complex kinase assay for S6K1 or […] as described (Pardo et al., 2001). In separate experiments, HEK293Tet cells expressing tetracycline-inducible kinase active cytoplasmic forms of S6K1 or […] were incubated with or without tetracycline prior to lysis and immune complex kinase assay.

[5] = system: S6K2; test: S6K2 immune complex kinase assay (S6-peptide substrate), ε-H69 cells; format: cell-based; conditions: ε-H69 cells (PKCε over-expressing), 40 μM peptide 4 h
Procedure: as §2

[6] = biological target: S6K2 (human) (UniProt Q9UBS0)
[7] = system: S6 protein; test: Phosphorylation of endogenous S6 protein in ε-H69 cells (phospho-S6 antibody); format: cell-based; conditions: ε-H69 cells in SFM
Procedure: S6 protein from V-H69 and ε-H69 cells in SFM treated with or without εTI-TITAT was determined using a phospho-S6 antibody. (D and F) PKCε KO MEFs re-expressing (KO+ε) or not (KO) […] were (D) grown in 10% FCS and analysed for phospho-S6 levels or (F) stimulated with or without FGF-2 and FCS prior to S6K2 immunoprecipitation and Western blotted as indicated. (C and D) Lamin B and actin immunodetection were used as a loading control. (A-F) Results shown are representative of at least 3 independent experiments.

[8] = 40 μM peptide 4 h, FGF-2 0.1 ng/ml 5 min

`O=C(O)CN(CC(=O)O)c1ccccc1OCCOc1ccccc1N(CC(=O)O)CC(=O)O` [BAPTA] was tested, and the “inhibition of FGF-2-mediated ERK phosphorylation” value [1] was “Only GF109203X and Rottlerin inhibited”.

`CN(C)CCCn1cc(C2=C(c3c[nH]c4ccccc34)C(=O)NC2=O)c2ccccc21` [GF109203X] was tested, and the “inhibition of FGF-2-mediated ERK phosphorylation” value [1] was “inhibited”.

In the case of `Cn1c2ccccc2c2c3c(c4c5ccccc5n(CCC#N)c4c21)CNC3=O` [Gö6976], the “inhibition of FGF-2-mediated ERK phosphorylation” value [1] is reported as “Only GF109203X and Rottlerin inhibited”.

`O=c1cc(O)cc(/C=C/c2ccc(O)c(O)c2)o1` [Hispidin] was tested, and the “inhibition of FGF-2-mediated ERK phosphorylation” value [1] was “Only GF109203X and Rottlerin inhibited”.

With `COc1cccc(-c2cc(=O)c3ccccc3o2)c1N` [PD098059] the “block of FGF-2-induced Bcl-XL and XIAP expression” value ([2]; HEK293 cells, 25 μM PD098059 1 h before FGF-2 4 h) was “could be blocked” and the “suppression of increased Bcl-XL and XIAP expression” value ([2]; KA-S6K2 HEK293Tet cells, tetracycline induced) was “could not be suppressed”.

`CC(=O)c1c(O)c(C)c(O)c(Cc2c(O)c3c(c(C(=O)/C=C/c4ccccc4)c2O)OC(C)(C)C=C3)c1O` [Rottlerin] was tested, and the “inhibition of FGF-2-mediated ERK phosphorylation” value [1] was “inhibited”.

For “FGF-2: fibroblast growth factor-2, purchased from Calbiochem”, the “Bcl-XL and XIAP expression” value ([2]; HEK293Tet cells stimulated with FGF-2) was “increased” and the survival [3] was “increased survival”.

TITAT (GRKKRRQRRRPPQ) was tested, and the “inhibition of FGF-2-induced S6K2 activation” value [4] was “but not by αTI-TITAT or TITAT”, the “inhibition of ERK phosphorylation in response to FGF-2 (in words)” value [1, 8] was “neither αTI-TITAT nor TITAT inhibited” and the “effect on basal S6K2 activity” value [5] was “no effect”.

Work on wt-PKCε-GFP (enzyme) yielded a basal S6K2 activity (immune complex kinase assay with S6-peptide) [6] of 2 fold.

αTI-TITAT (SLNPEWNETGRKKRRQRRRPPQ) was tested, and the “inhibition of FGF-2-induced S6K2 activation” value [4] was “but not by αTI-TITAT or TITAT”, the “inhibition of ERK phosphorylation in response to FGF-2 (in words)” value [1, 8] was “neither αTI-TITAT nor TITAT inhibited” and the “effect on basal S6K2 activity” value [5] was “no effect”.

εTI-TITAT (EAVSLKPTGRKKRRQRRRPPQ) was tested, and the “effect on increased S6 phosphorylation” value [7] was “prevented”, the “inhibition of FGF-2-induced S6K2 activation” value [4] was “inhibited” and the “inhibition of ERK phosphorylation in response to FGF-2” value [1, 8] was 60%. The “effect on basal S6K2 activity” value [5] was “lowered S6K2 activity in ε-H69 cells to a level comparable to that found in V-H69 cells”.
